Structures can show the parent of a compound that is named as a salt. Where two headings read alike, the source gives them in different places.
Experiments:
[1] = target: SUV39H2 (Homo sapiens (Human), UniProt Q9H5I1); experiment: biochemical; type: biochemical; conditions: 3H-SAM 100 nM, H3 Histone Peptide 350 nM, room temperature 3 hours
Method in brief: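 Human SUV39H2, at a lot-specific concentration set by specific activity, was incubated with test compounds for 3 h at room temperature, then stopped with streptavidin SPA beads (50 μg/well final).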

[2] = tested on: A549; experiment: Cell-based assay, anti-proliferative activity (Cell Counting Kit-8, 72 hours); conditions: Homo sapiens, read-out: A549 IC50
Method in brief: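 Cells were seeded in 96-well plates and exposed to candidate inhibitors. Cellular growth was then determined with the colorimetric kit, and IC50 values were calculated from the growth data.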

[3] = A549 cells, 72 hours exposure, Cell Counting Kit-8

Sequence of SUV39H2 (Q9H5I1 whole entry): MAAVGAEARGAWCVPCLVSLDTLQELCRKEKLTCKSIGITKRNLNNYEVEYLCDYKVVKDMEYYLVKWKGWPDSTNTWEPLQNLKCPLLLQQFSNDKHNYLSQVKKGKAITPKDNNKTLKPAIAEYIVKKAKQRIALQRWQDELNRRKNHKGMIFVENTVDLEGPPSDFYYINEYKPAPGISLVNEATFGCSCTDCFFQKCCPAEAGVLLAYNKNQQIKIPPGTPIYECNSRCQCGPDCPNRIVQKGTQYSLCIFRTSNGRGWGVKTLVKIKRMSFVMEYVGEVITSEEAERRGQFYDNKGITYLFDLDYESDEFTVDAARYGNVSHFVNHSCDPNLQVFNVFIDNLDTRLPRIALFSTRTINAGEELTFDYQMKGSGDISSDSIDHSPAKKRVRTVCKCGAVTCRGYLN

SMILES | IC50 [1] [nM] | IC50 [2, 3] [nM] | IC50 ([2]; A549, 72 h) [nM]
COc1cc(OC)c(-c2cn3ccc(N4CCN(c5nc(N)nc(N6CCC(N(C)C)C6)n5)CC4)cc3n2)cc1Cl (stereo not shown) [Example 436, 4-(4-(2-(5-chloro-2,4-dimethoxyphenyl)imidazo[1,2-a]pyridin-7-yl)piperazin-1-yl)-6-(3-(dimethylamino)pyrrolidin-1-yl)-1,3,5-triazin-2-amine] | 11.7 | 650 | 
COc1cc(OC)c(-c2cn3ccc(N4CCN(/N=C\c5ccncc5)CC4)cc3n2)cc1Cl [Example 410, (Z)-4-(2-(5-chloro-2,4-dimethoxyphenyl)imidazo[1,2-a]pyridin-7-yl)-N-(pyridin-4-ylmethylene)piperazin-1-amine] | 8.29 | 780 | 
COc1cc(OC)c(-c2cn3ccc(N4CCN(c5cccc(N6CCN(C)CC6)n5)CC4)cc3n2)cc1Cl [Example 381, 2-(5-chloro-2,4-dimethoxyphenyl)-7-(4-(6-(4-methylpiperazin-1-yl)pyridin-2-yl)piperazin-1-yl)imidazo[1,2-a]pyridine] | 43.1 | 770 | 
CNC1CCN(c2ccnc(N3CCN(c4ccn5cc(-c6cc(Cl)c(OC)cc6OC)nc5c4)CC3)n2)CC1 [Example 426, 1-(2-(4-(2-(5-chloro-2,4-dimethoxyphenyl)imidazo[1,2-a]pyridin-7-yl)piperazin-1-yl)pyrimidin-4-yl)-N-methylpiperidin-4-amine] | 17.7 | 670 | 
COc1cc(OC)c(-c2cn3ccc(N4CCN(c5cc(N6CCCC6)nc(N)n5)CC4)cc3n2)cc1Cl [Example 385, 4-(4-(2-(5-chloro-2,4-dimethoxyphenyl)imidazo[1,2-a]pyridin-7-yl)piperazin-1-yl)-6-(pyrrolidin-1-yl)pyrimidin-2-amine] | 38 | 660 | 
COc1cc(OC)c(-c2cn3ccc(N4CCN(c5ccnc(N6CCNC(C)C6)n5)CC4)cc3n2)cc1Cl (stereo not shown) [Example 362, 2-(5-chloro-2,4-dimethoxyphenyl)-7-(4-(2-(3-methylpiperazin-1-yl)pyrimidin-4-yl)piperazin-1-yl)imidazo[1,2-a]pyridine] | 15.5 | 680 | 
COc1cc(OC)c(-c2cn3ccc(N4CCN(c5cnc(N6CCCC(N)C6)nc5)CC4)cc3n2)cc1Cl (stereo not shown) [Example 417, 1-(5-(4-(2-(5-chloro-2,4-dimethoxyphenyl)imidazo[1,2-a]pyridin-7-yl)piperazin-1-yl)pyrimidin-2-yl)piperidin-3-amine] | 9.91 | 620 | 
COc1cc(OC)c(-c2cn3ccc(N4CCN(c5cncnc5)CC4)cc3n2)cc1Cl [Example 317, 2-(5-chloro-2,4-dimethoxyphenyl)-7-(4-(pyrimidin-5-yl)piperazin-1-yl)imidazo[1,2-a]pyridine] | 11.6 | 650 | 
COc1ccc(N2CCN(c3ccn4cc(-c5cc(Cl)c(OC)cc5OC)nc4c3)CC2)nc1 [Example 321, 2-(5-chloro-2,4-dimethoxyphenyl)-7-(4-(5-methoxypyridin-2-yl)piperazin-1-yl)imidazo[1,2-a]pyridine] | 87.4 | 870 | 
COc1cc(OC)c(-c2cn3ccc(N4CCN(c5nccc(N6CCC(N)CC6)n5)CC4)cc3n2)cc1Cl [Example 437, 1-(2-(4-(2-(5-chloro-2,4-dimethoxyphenyl)imidazo[1,2-a]pyridin-7-yl)piperazin-1-yl)pyrimidin-4-yl)piperidin-4-amine] | 15.9 | 740 | 
COc1cc(OC)c(-c2cn3ccc(N4CCN(c5ccnc(NCC(C)O)n5)CC4)cc3n2)cc1Cl (stereo not shown) [Example 399, 1-((4-(4-(2-(5-chloro-2,4-dimethoxyphenyl)imidazo[1,2-a]pyridine-7-yl)piperazin-1-yl)pyrimidin-2-yl)amino)propan-2-ol] | 11.7 | 660 | 
COc1cc(OC)c(-c2cn3ccc(N4CCN(C(=O)CCCCNC(=O)OC(C)(C)C)CC4)cc3n2)cc1Cl [Example 315, tert-butyl (5-(4-(2-(5-chloro-2,4-dimethoxyphenyl)imidazo[1,2-a]pyridin-7-yl)piperazin-1-yl)-5-oxopentyl)carbamate] | 10.5 | 4400 | 
COc1cc(OC)c(-c2cn3ccc(N4CCN(c5ncc(N)cn5)CC4)cc3n2)cc1Cl [Example 422, 2-(4-(2-(5-chloro-2,4-dimethoxyphenyl)imidazo[1,2-a]pyridin-7-yl)piperazin-1-yl)pyrimidin-5-amine hydrochloride] | 11.2 |  | 720
COc1cc(OC)c(-c2cn3ccc(N4CCN(c5nccc(N6CCNCC6)n5)CC4)cc3n2)cc1Cl [Example 359, 2-(5-chloro-2,4-dimethoxyphenyl)-7-(4-(4-(piperazin-1-yl)pyrimidin-2-yl)piperazin-1-yl)imidazo[1,2-a]pyridine dihydrochloride] | 12.2 |  | 400
COc1cc(OC)c(-c2cn3ccc(N4CCN(c5ccc(N)nc5)CC4)cc3n2)cc1Cl [Example 323, 5-(4-(2-(5-chloro-2,4-dimethoxyphenyl)imidazo[1,2-a]pyridin-7-yl)piperazin-1-yl)pyridin-2-amine] | 30.4 | 930 | 
COc1cc(OC)c(-c2cn3ccc(N4CCN(c5cc(N6CCNCC6)ncn5)CC4)cc3n2)cc1Cl [Example 375, 2-(5-chloro-2,4-dimethoxyphenyl)-7-(4-(6-(piperazin-1-yl)pyrimidin-4-yl)piperazin-1-yl)imidazo[1,2-a]pyridine] | 23.1 | 690 | 
CNc1ccnc(N2CCN(c3ccn4cc(-c5cc(Cl)c(OC)cc5OC)nc4c3)CC2)n1 [Example 364, 2-(4-(2-(5-chloro-2,4-dimethoxyphenyl)imidazo[1,2-a]pyridin-7-yl)piperazin-1-yl)-N-methylpyrimidin-4-amine] | 40.7 |  | 550
COc1cc(OC)c(-c2cn3ccc(N4CCN(c5cc(N6CCOCC6)nc(N)n5)CC4)cc3n2)cc1Cl [Example 384, 4-(4-(2-(5-chloro-2,4-dimethoxyphenyl)imidazo[1,2-a]pyridin-7-yl)piperazin-1-yl)-6-morpholinopyrimidin-2-amine] | 10.9 | 940 | 
COc1cc(OC)c(-c2cn3ccc(N4CCN(c5nc(N)nc(NC(C)(C)C)n5)CC4)cc3n2)cc1Cl [Example 446, N^2-(tert-butyl)-6-(4-(2-(5-chloro-2,4-dimethoxyphenyl)imidazo[1,2-a]pyridin-7-yl)piperazin-1-yl)-1,3,5-triazine-2,4-diamine] | 97.4 | 430 | 
COc1cc(OC)c(-c2cn3ccc(N4CCN(c5ccnc(N6CCC(N)CC6)n5)CC4)cc3n2)cc1Cl [Example 338, 1-(4-(4-(2-(5-chloro-2,4-dimethoxyphenyl)imidazo[1,2-a]pyridin-7-yl)piperazin-1-yl)pyrimidin-2-yl)piperidin-4-amine] | 17 | 1200 | 
COc1cc(OC)c(-c2cn3ccc(N4CCN(C(C)=O)C(C)C4)cc3n2)cc1Cl (stereo not shown) [Example 309, 1-(4-(2-(5-chloro-2,4-dimethoxyphenyl)imidazo[1,2-a]pyridin-7-yl)-2-methylpiperazin-1-yl)ethanone] | 1.97 | 2100 | 
COc1cc(OC)c(-c2cn3ccc(N4CCN(c5ccnc(N6CCC(O)C6)n5)CC4)cc3n2)cc1Cl (stereo not shown) [Example 346, 1-(4-(4-(2-(5-chloro-2,4-dimethoxyphenyl)imidazo[1,2-a]pyridin-7-yl)piperazin-1-yl)pyrimidin-2-yl)pyrrolidin-3-ol] | 15.3 |  | 590
COc1cc(OC)c(-c2cn3ccc(N[C@H]4CC[C@@H](NCc5ccc(C)cc5)CC4)cc3n2)cc1Cl [Example 329, cis-N^1-(2-(5-chloro-2,4-dimethoxyphenyl)imidazo[1,2-a]pyridin-7-yl)-N^4-(4-methylbenzyl)cyclohexane-1,4-diamine] | 38.8 | 780 | 
COc1cc(OC)c(-c2cn3ccc(N4CCCN(CC5CCCCC5)CC4)cc3n2)cc1Cl [Example 435, 2-(5-chloro-2,4-dimethoxyphenyl)-7-(4-(cyclohexylmethyl)-1,4-diazepan-1-yl)imidazo[1,2-a]pyridine] | 6.46 | 650 | 
COc1cc(OC)c(-c2cn3ccc(N4CCCN(C(C)=O)CC4)cc3n2)cc1Cl [Example 429, 1-(4-(2-(5-chloro-2,4-dimethoxyphenyl)imidazo[1,2-a]pyridin-7-yl)-1,4-diazepan-1-yl)ethanone] | 16.1 | 10000 | 
COc1cc(OC)c(-c2cn3ccc(N4CCN(c5cnc(N6CCC(N)CC6)nc5)CC4)cc3n2)cc1Cl [Example 350, 1-(5-(4-(2-(5-chloro-2,4-dimethoxyphenyl)imidazo[1,2-a]pyridin-7-yl)piperazin-1-yl)pyrimidin-2-yl)piperidin-4-amine] | 7.35 | 680 | 
COc1cc(OC)c(-c2cn3ccc(NC4CCN(Cc5csc([N+](=O)[O-])c5)CC4)cc3n2)cc1Cl [Example 324, 2-(5-chloro-2,4-dimethoxyphenyl)-N-(1-((5-nitrothiophen-3-yl)methyl)piperidin-4-yl)imidazo[1,2-a]pyridin-7-amine] | 33.9 | 590 | 
COc1cc(OC)c(-c2cn3ccc(N4CCN(c5cc(N6CCN(C)CC6)ncn5)CC4)cc3n2)cc1Cl [Example 377, 2-(5-chloro-2,4-dimethoxyphenyl)-7-(4-(6-(4-methylpiperazin-1-yl)pyrimidin-4-yl)piperazin-1-yl)imidazo[1,2-a]pyridine dihydrochloride] | 14.4 |  | 660
COc1cc(OC)c(-c2cn3ccc(N4CCCN(CC5CCCC5)CC4)cc3n2)cc1Cl [Example 442, 2-(5-chloro-2,4-dimethoxyphenyl)-7-(4-(cyclopentylmethyl)-1,4-diazepan-1-yl)imidazo[1,2-a]pyridine] | 13.9 | 730 | 

Reference: US10508109B2 (priority 2015, dated 2019)
